Measurements: patent US20130164387A9, “NOVEL MANNOPYRANOSIDE DERIVATIVES WITH ANTICANCER ACTIVITY” (Centre National De La Recherche Scientifique, priority 2009, published 2013)

Test system: B16 melanoma
Assay: Tumor growth and survival of mice which have a B16 melanoma
Assay type: in vivo, mouse
Conditions: for inhibition of tumor growth: mice with subcutaneous B16 melanoma, dose of 300 mg/kg
Protocol: A melanoma is induced in a mouse by subcutaneous injection of tumor cells (B16 cells).
The tumor develops within 10 days in the subcutaneous position (ventral face of the thigh). The size of the tumor is measured with a caliper rule and its volume is estimated according to the formula V=L×w×w, in which L represents the length and w represents the width. Various compounds of the invention were administered to mice having received syngenic melanoma cells (B16) at a dose of 300 mg/kg.

| Substance | mortality in treated mouse group (after 18 days of treatment, 300 mg/kg, nontreated mouse group 40% mortality) | inhibition of tumor growth [%] |
| --- | --- | --- |
| 6-(METHYL 6-DEOXY-α-D-MANNOPYRANOSIDE) BORONIC ACID [compound 7f] | no mortality | 65 |
| METHYL 6-O-HYDROGENOPHOSPHONATE-α-D-MANNO-PYRANOSIDE [compound 4e] |  | 40 |
